Source: patent US9453006B2, “Crystalline form having specific crystal habit and pharmaceutical composition containing this crystalline form as active ingredient” (POLA PHARMA INC., priority 2013, dated 2016)

Tests used:
[1] = test system: Trichomonas; assay: Anti-Trichomonas effect, number of survived protozoa after 72 hours culture at 37° C. (Example 4); format: cell-based; conditions: for Number of survived protozoa: cultured 72 hours at 37° C.
Experimental: Each of Crystal 1 and Crystal 2 was correctly weighed in an amount of 3.45 mg, which was dissolved in 10 mL of ethanol, in the same manner as in Example 3. After confirming the absence of the crystal by visual observation, 100 μL of the solution was used as an aliquot, and 900 μL of physiological saline was added thereto. The resultant solution was subjected to the sterilizing filtration by using a filter having a pore size of […] a sample or specimen. 0.5 mL of each of the specimens was added to “Trichomonas medium F” (produced by Fuji Pharma Co., Ltd.). Further, 100 μL of Trichomonas culture, which had been precultured and prepared to give 2.7×10^5 individuals/mL by adding the medium, was added, followed by being cultured for 72 hours at 37° C. (final concentration: 2.4 μg/mL). After completing the cultivation, the number of survived individuals of Trichomonas was counted by using a hemocytometer.

[2] = test system: Trichomonas vaginalis (clinically isolated strain); assay: Effect on Trichomonas vaginalis, number of survived individuals after 96 hours culture (Example 3); format: cell-based; conditions: for Number of survived individuals of Trichomonas: after 0.22 μm sterilizing filtration, cultured 96 hours
Text: The effect on Trichomonas vaginalis (clinically isolated strain) of the crystal was investigated while being compared with a crystal having such a crystal habit that the (11-1) plane was the specific crystal growth plane. A solution of 10% ethanol/physiological saline was used as a control.
Crystal of Comparative Example described above was used as the crystal which had such a crystal habit that the (11-1) plane was the specific crystal growth plane. Crystal 2 was used as the crystal which had such a crystal habit that the (011) plane was the specific crystal growth plane.
Each of the crystals of luliconazole was weighed in an amount of 7.02 mg to which 10 mL of ethanol was added to dissolve the crystal. After confirming the absence of the crystal by visual observation, 100 μL of the solution was used as an aliquot, and 900 μL of physiological saline was added thereto. The resultant solution was subjected to the sterilizing filtration by using a filter having a pore size of 0.22 μm to provide a sample of 5.02 μg/mL (final concentration). 250 μL of an aliquot was taken therefrom, to which 250 μL of 10% ethanol/physiological saline was added to provide a sample of 2.51 μg/mL (final concentration).
0.5 mL of each of the samples was added to “Trichomonas medium F” (produced by Fuji Pharma Co., Ltd.), and 100 μL of Trichomonas culture (5×10^3 individuals of Trichomonas) was added thereto, followed by being cultured for 96 hours. After performing cooling for 10 minutes in ice water, the medium was stirred, which was spread on a hemocytometer to count a number of survived individuals of Trichomonas. As for a control, 0.5 mL of 10% ethanol/physiological saline was added in place of the sample. […] Further, according to the fact that the peak area ratio of the (011) plane was 26%, it is possible to estimate and acknowledge that the effect as described above is provided if I(011) with respect to the sum total of I(001), I(100), I(10-1), I(011), I(110), I(11-1), I(10-2), I(11-2), I(020), I(021), I(20-2), I(121), I(013), I(11-3), and I(221) is not less than 25%, provided that integrated intensities of diffraction peaks, which correspond to the (001), (100), (10-1), (011), (110), (11-1), (10-2), (11-2), (020), (021), (20-2), (121), (013), (11-3), and (221) planes, are designated as I(001), I(100), I(10-1), I(011), I(110), I(11-1), I(10-2), I(11-2), I(020), I(021), I(20-2), I(121), I(013), I(11-3), and I(221) respectively in relation to the diffraction peaks detected in a range of 2θ=5 to 35° in a powder X-ray diffraction pattern in which CuKα is used as an X-ray source.

[3] = sample 2.51 μg/mL (final concentration)
[4] = sample 5.02 μg/mL (final concentration)

N#C/C(=C1/SC[C@@H](c2ccc(Cl)cc2Cl)S1)n1ccnc1 [Crystal 1, luliconazole]
anti-Trichomonas effect ([1]; Crystal 1 compared with Crystal 2): more excellent than that of Crystal 2
Number of survived protozoa ([1]; final concentration 2.4 μg/mL): 5.57 ± 0.42 100000 individuals/mL
Number of survived protozoa ([1]; final concentration 4.8 μg/mL): 0 100000 individuals/mL
Number of survived protozoa ([1]; final concentration 9.6 μg/mL): 0 100000 individuals/mL

N#C/C(=C1/SC[C@@H](c2ccc(Cl)cc2Cl)S1)n1ccnc1 [Crystal of Comp. Ex., luliconazole, reference compound]
Number of survived individuals of Trichomonas [2, 3]: 116667 ± 15275 individuals/mL
Number of survived individuals of Trichomonas [2, 4]: 23333 ± 5773 individuals/mL

N#C/C(=C1/SC[C@@H](c2ccc(Cl)cc2Cl)S1)n1ccnc1 [Crystal 2, luliconazole]
suppression of the growth of Trichomonas in the vicinity of MIC ([2]; compared with the crystal having the (11-1) plane as specific crystal growth plane): significantly excellent
Number of survived individuals of Trichomonas [2, 3]: 23333 ± 5773 individuals/mL
Number of survived individuals of Trichomonas [2, 4]: 23333 ± 5773 individuals/mL
Number of survived protozoa ([1]; final concentration 2.4 μg/mL): 6.57 ± 0.60 100000 individuals/mL
Number of survived protozoa ([1]; final concentration 4.8 μg/mL): 0 100000 individuals/mL
Number of survived protozoa ([1]; final concentration 9.6 μg/mL): 0 100000 individuals/mL
